Results as given in PubChem BioAssay (NCI).
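Method: 48-hour compound exposure of cells in 96-well plates, five concentrations, linear interpolation of endpoints. Here, GI50 denotes the concentration required for 50% inhibition of growth. TGI marks complete inhibition of growth.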

Experiments:
Experiment in all cases: NCI-60 cell line screen, 48 h
[1] = test system: BT-549 breast
[2] = test system: MCF7 breast
[3] = test system: NCI/ADR-RES ovarian
[4] = test system: DLD-1 colon
[5] = test system: LXFL 529 NSCLC
[6] = test system: RXF-631 renal
[7] = test system: SNB-78 CNS
[8] = test system: KM20L2 colon
[9] = test system: HOP-18 NSCLC

Structure (SMILES)	GI50 [1] [nM]	TGI [1] [µM]	TGI [2] [µM]	GI50 [3] [µM]	TGI [3] [µM]	TGI [4] [µM]	TGI [5] [µM]	TGI [7] [µM]	TGI [8] [µM]	also measured
CC/C=C\C/C=C\C[C@H](O)C/C=C1/C(=O)C=C[C@@H]1C/C=C\CCCC(=O)OC	1830	4.01	5.2	1.78	7.41	–	–	–	–	GI50 [2]: 329 nM
CC(=O)C1C(=O)N(C(C)C)C[C@@H]2CCC(=O)C[C@H]12 (stereo partly specified)	–	–	–	–	–	> 100	> 100	> 100	–	TGI [6]: > 100 µM
OCNCCNc1nc2ccccc2c2[nH]c3ccccc3c12	1150	3.48	4.5	7.17	22.6	–	–	–	–	GI50 [2]: 1240 nM
CNC(=O)CN(CC(N)=O)C(N)=O	–	–	–	–	–	> 100	> 100	> 100	> 100	TGI [6]: > 100 µM
O=C1CN(/N=C/c2ccc(-c3ccc(F)cc3)o2)C(=O)N1	–	–	> 100	–	> 100	–	–	–	–	–
CCOc1ccc(C(CN2CCOCC2)C(C)=O)cc1OC (stereo unspecified)	–	–	–	–	–	27.9	17	66.8	35	TGI [9]: 30.2 µM
C/C=C1\C(=O)OC2CCN3CCC(COC(=O)C(C)(O)C(C)C1O)C23 (stereo unspecified)	–	> 100	> 100	–	> 100	–	–	–	–	–
CC1CC2(C)CC(=O)C1C1C(=O)N(CCN3CCCCC3)C(=O)C12 (stereo unspecified)	> 100000	> 100	–	> 100	> 100	–	–	–	–	–
CC1(C)CC[C@]2(C(N)=O)CC[C@]3(C)C(=CC[C@@H]4[C@@]5(C)C/C(=C/c6ccncc6)C(=O)C(C)(C)[C@@H]5CC[C@]43C)[C@@H]2C1	–	–	10.5	2.42	6.99	–	–	–	–	GI50 [2]: 2520 nM
COc1ccc(OC)c2c3c(ccc12)C(c1ccccc1)OC3=O (stereo unspecified)	–	–	–	–	–	> 100	> 100	64.9	> 100	TGI [9]: > 100 µM
COC(=O)c1c(C)nc(C)c(NO)c1-c1ccccc1C(F)(F)F	–	30.8	39.2	–	38.4	–	–	–	–	–
CCOC(=O)C(NC(=O)c1[nH]cnc1/N=N/N(C)C)C(C)C (stereo unspecified)	–	–	–	–	–	> 100	> 100	–	–	–
CC1=C(C(=O)Nc2ccc(Cl)c(Cl)c2)C(c2ccccc2O)NC(=O)N1 (stereo unspecified)	15300	> 50	–	> 50	> 50	–	–	–	–	–
CN1CCN(c2nc(-c3ccncc3)nc3sc4c(c23)CCCCCC4)CC1	6350	19.9	20.4	8.17	24.5	–	–	–	–	GI50 [2]: 6610 nM
Cc1c(C(=O)CSc2nc3ccccc3[nH]2)c(=O)n(-c2ccccc2)n1C	–	–	–	–	–	> 100	> 100	> 100	> 100	–
CCCCCCCCCCCCOP(N)(=O)OCCCCCCCCCCCC	–	–	–	–	–	> 100	> 100	> 100	–	–
CC1CCC2N(C1)CC1C3(O)CC45OC6(O)C(O)CCC4(C)C6CCC5C3(O)CC(O)C1(O)C2(C)O (stereo unspecified)	–	> 100	> 100	–	> 100	–	–	–	–	–
CC(NC(=O)c1ccccc1)(C(=O)O)C(=O)O	–	> 100	> 100	–	> 100	–	–	–	–	–
COc1nc(NC2OC(COC(C)=O)C(OC(C)=O)C(OC(C)=O)C2OC(C)=O)c(-c2csc(N)n2)c(=O)n1C (stereo unspecified)	–	–	–	–	–	> 100	> 100	> 100	> 100	TGI [9]: > 100 µM
CC(=O)Oc1ccc(/C=N/NC(N)=S)nc1	3400	68.9	> 100	3.48	> 100	–	–	–	–	GI50 [2]: 2130 nM
COc1ccc(S(=O)(=O)N(C)CC(=O)O)cc1	–	–	–	–	–	> 100	> 100	–	> 100	TGI [9]: > 100 µM; TGI [6]: > 100 µM
O=C(NCCCCCCCNC(=O)OCc1ccc2c(Cl)cc(Cl)c(O)c2n1)OCc1ccc2c(Cl)cc(Cl)c(O)c2n1	359	1.42	–	0.338	3.59	–	–	–	–	–
CC(=O)OC1CC2C(=O)C(=O)C1(C)C2(C)C (stereo unspecified)	–	> 100	> 100	–	> 100	–	–	–	–	–

Structure (SMILES)	GI50 [1] [nM]	TGI [1] [µM]	TGI [2] [µM]	GI50 [3] [µM]	TGI [3] [µM]	TGI [4] [µM]	TGI [5] [µM]	TGI [7] [µM]	TGI [8] [µM]	also measured
COc1cccc(/C=C/C(=O)c2cc3c(N)c(C(=O)Nc4cccc5ccccc45)sc3nc2C)c1	1200	3.88	> 50	1.33	5.75	–	–	–	–	GI50 [2]: 339 nM
COc1cc([N+](=O)[O-])c2ncccc2c1[N+](=O)[O-]	7620	20.2	32.1	2.8	10.8	–	–	–	–	GI50 [2]: 3260 nM
S=c1nc(-c2ccnc(-c3nc(=S)[nH][nH]3)c2)[nH][nH]1	–	–	–	–	–	> 100	> 100	> 100	> 100	TGI [9]: > 100 µM
Nc1[nH]c(=O)ncc1CO	> 100000	> 100	> 100	–	–	–	–	–	–	GI50 [2]: > 100000 nM
CCOc1cc(-c2ccc[nH]2)[nH]c1/C=C1\N=C(C)C(C(=O)OC)=C1C	45.1	1.92	0.467	0.0432	1.47	–	–	–	–	GI50 [2]: 36.9 nM
COc1cnc2cc(C(=O)O)c3ccccc3c2c1	–	–	> 100	–	> 100	–	–	–	–	–
CCC1CNC(=O)CC1CC(=O)OC (stereo unspecified)	–	–	–	–	–	–	–	> 100	> 100	–
COc1cc(NC(=O)Nc2cnc(Nc3ccc(N4CCOCC4)cc3)nc2Oc2cccc(OC)c2)cc(OC)c1	1490	5.74	18.8	4.04	> 50	–	–	–	–	GI50 [2]: 1920 nM
O=C(Cc1ccccc1)NN1C(=O)/C(=C\c2ccc(O)cc2)SC1=Nc1ccccc1	–	> 100	> 100	–	> 100	–	–	–	–	–
O=c1cc(-c2ccccn2)[nH]c2ccc(Cl)cc12	–	–	–	–	–	> 100	> 100	> 100	> 100	TGI [9]: > 100 µM; GI50 [8]: 40 µM
O=C1c2ccccc2C(=O)c2nc3ccc(Cl)cc3cc21	–	–	–	–	–	> 100	> 100	> 100	> 100	TGI [6]: > 100 µM
Oc1ccc(Cl)cc1Cc1cc(Cl)ccc1O	2600	8.76	10.2	2.19	6.32	–	–	–	–	GI50 [2]: 2970 nM
CSc1ccc(C(=O)C(=O)c2ccc(SC)s2)s1	–	–	> 10	–	> 10	–	–	–	–	–
CC(=O)N(Cc1ccccc1)c1ccccc1I(=O)=O	> 100000	> 100	40.5	37.8	> 100	–	–	–	–	GI50 [2]: 16500 nM
CC(C)C(=O)Oc1cc2c(=O)oc3c(OC(=O)C(C)C)c(OC(=O)C(C)C)cc4c(=O)oc(c1OC(=O)C(C)C)c2c34	–	> 100	> 100	–	> 100	–	–	–	–	–
O=C1C=CC2(C=C1)C[C@H](NC(=O)C(F)(F)F)C(=O)O2	–	–	–	–	–	53.1	69.1	> 100	> 100	–
N[C@@H]1CCCC[C@@H]1N.O=P([O-])([O-])CN(CP(=O)([O-])[O-])CP(=O)([O-])[O-].[Pt+2]	–	–	–	–	–	> 100	> 100	> 100	> 100	GI50 [4]: > 100 µM; GI50 [9]: > 100 µM; TGI [9]: > 100 µM; GI50 [8]: > 100 µM; GI50 [5]: > 100 µM; GI50 [7]: > 100 µM
Cc1cc(Cl)cc2c1NC(=O)C2=O (tested in a mixture with another compound)	–	–	–	–	–	> 100	> 100	91.1	> 100	TGI [9]: > 100 µM
O=C(Cc1csc2nc(-c3ccc(Br)cc3)cn12)N/N=C/c1ccc(O)cc1	13400	56.5	> 100	21.2	61.1	–	–	–	–	GI50 [2]: 62700 nM
Cc1cc([N+](=O)[O-])c(C)c(Br)c1C	–	> 100	> 100	–	> 100	–	–	–	–	–
Cc1cc(Cl)ccc1NS(=O)(=O)c1ccc(-c2cnc(C3CC3)o2)cc1	1320	15.5	14.7	0.178	13	–	–	–	–	GI50 [2]: 61.9 nM
Nc1ccc2c(c1)c(N)nn2C(=O)Nc1ccc(Cc2ccccc2)cc1	14600	33.5	26.5	17.4	75.1	–	–	–	–	GI50 [2]: 6920 nM
Cc1nc(N)nc2ccccc12	–	> 100	> 100	–	> 100	–	–	–	–	–

Structure (SMILES)	GI50 [1] [nM]	TGI [1] [µM]	TGI [2] [µM]	GI50 [3] [µM]	TGI [3] [µM]	TGI [4] [µM]	TGI [5] [µM]	TGI [7] [µM]	TGI [8] [µM]	also measured
C=[CH][Sn]([CH]=C)([O]c1cccc2cccnc12)[O]c1cccc2cccnc12	2780	31.5	12.6	9.94	> 100	–	–	–	4.99	GI50 [8]: 2.26 µM; GI50 [2]: 3110 nM
CC1=NN(C(=O)c2ccccc2O)C(=O)/C1=C/c1cccc([N+](=O)[O-])c1	–	–	> 100	–	> 100	> 100	> 100	> 100	63.6	–
COC(=O)CC(C(C(C)=O)C(=O)OCc1ccccc1)N1C(=O)OCC1c1ccccc1 (stereo unspecified)	–	–	–	–	–	> 100	> 100	–	> 100	TGI [6]: > 100 µM
CC1OC(OC2CCC3(C=O)C4CCC5(C)C(C6=CC(=O)OC6)CCC5(O)C4CCC3(O)C2)C(O)C(O)C1O (stereo unspecified)	–	4.44e-05	–	–	6.17e-05	–	–	–	–	–
COc1cc(/C=C(\C#N)C(N)=C(C#N)C#N)cc(O)c1O	–	> 100	> 100	–	> 100	> 100	> 100	> 100	> 100	–
CCN(CC)CCN(C(=O)C(C)(C)C)c1ccccc1N	–	> 100	> 100	–	> 100	–	–	–	–	–
Cc1nc(-n2nc(-c3ccccc3)cc2-c2ccccc2)sc1C(/C=C/c1ccc([N+](=O)[O-])cc1)=N/NC(=O)c1ccncc1	–	–	–	–	–	33.2	43.2	61	> 100	–
CC1COCC(C)N1C1=C(Cl)C(=O)c2ccccc2C1=O (stereo unspecified)	11700	24	3.76	3.36	14.1	–	–	–	–	GI50 [2]: 1670 nM
COc1ccc(CCN2CCc3c(C)c(C#N)c4nc5ccccc5n4c32)cc1OC	–	84.2	> 100	–	> 100	–	–	–	–	–
N#CC1C=Cc2ccccc2N1C(=O)Oc1ccccc1 (stereo unspecified)	–	> 100	> 100	–	> 100	–	–	–	–	–
COc1cc2cc3c4c(cc(OC)c(OC)c4c2cc1OC)CCN3C(=O)CCC(=O)NCCCN(C)C	–	–	–	–	–	30.9	> 100	> 100	67	TGI [9]: > 100 µM
O=C(Nc1cccc(NC(=O)c2cc(=O)c3ccccc3o2)n1)c1cc(=O)c2ccccc2o1	–	–	–	–	–	> 100	> 100	> 100	> 100	TGI [6]: > 100 µM
COc1ccc2nc3ccccc3c(NCCCCN(C)CCCl)c2c1	–	1.98	0.172	–	–	0.964	0.189	0.674	0.478	TGI [6]: 0.367 µM
COc1cc2c(c(OC)c1OC)-c1ccc(SC)c(=O)cc1[C@@H](NC(=O)c1ccc(Cl)cc1)CC2	–	–	–	–	–	> 100	0.169	–	< 0.01	TGI [6]: > 100 µM
COC1(OC)c2no[n+]([O-])c2C(OC)(OC)c2c1no[n+]2[O-]	–	–	42.7	–	62.8	–	–	–	–	–
O=C(Nc1ccccc1C(=O)N/N=C(\c1ccccc1)c1ccccn1)c1ccc(F)cc1	436	> 26.7	> 100	0.105	> 19.7	–	–	–	–	GI50 [2]: 308 nM
COC(=O)/C(=N/NC(N)=O)C(C(=O)OC)C(=O)C(=O)Nc1ccc(Cl)cc1 (stereo unspecified)	–	–	–	–	–	> 100	> 100	–	> 100	TGI [9]: > 100 µM
CCSC(SCC)=C1C(=O)N(c2ccccc2)N=C1C	–	–	–	–	–	26.8	22.6	46.3	30.5	TGI [9]: 29.4 µM
COc1ccc(C(O)CC(O)(C(F)(F)F)C(F)(F)F)cc1 (stereo unspecified)	–	–	> 100	–	59.7	–	–	–	–	–
O=S(=O)(c1ccc(O)c(C=Nc2ccc(Cl)cc2)c1)c1ccc(O)c(C=Nc2ccc(Cl)cc2)c1	–	–	–	–	–	> 100	> 100	–	> 100	TGI [9]: > 100 µM; TGI [6]: > 100 µM
N=C1C=C(N)C(=O)c2[nH]c(=O)ccc21	–	–	1.78	–	4.86	–	–	–	–	–
CC1(C)OC2C(COS(N)(=O)=O)SC(n3cnc4cncnc43)C2O1 (stereo unspecified)	> 100000	> 100	> 100	> 100	> 100	–	–	–	–	GI50 [2]: > 100000 nM
CSC1=NCC2(S1)c1ccccc1N(C(=O)OC(C)(C)C)C2N1CCCCC1 (stereo unspecified)	> 100000	> 100	> 100	> 100	> 100	–	–	–	–	GI50 [2]: > 100000 nM
